Paper PMC12655172, “Borylated 5-Membered Ring Iminosugars: Synthesis and Biological Evaluation for Glycosidase Inhibition and Anticancer Properties for Application in Boron Neutron Capture Therapy (BNCT)—Part 2” (Pharmaceuticals, 2025)
Values joined by “and” are separate entries in the source; they are usually repeats but may differ in a detail not shown here. Identical values can stand only once.

Legend:
[1] = test system: β-D-glucosidase (human lysosome); experiment: Glycosidase inhibition (Table 2 panel); format: biochemical; conditions: at 100 μM
α-D-glucosidase (yeast) [2] = target: T1, α-D-glucosidase (yeast) (Saccharomyces cerevisiae, UniProt P53341); experiment: Glycosidase inhibition (Table 3 panel); format: biochemical; conditions: 1 mg/mL aqueous solution, run in water; for inhibition at 1000 µg/mL (stock): read-out: Percentage inhibition α-D-Glucosidase Yeast
T1 construct: purchased Sigma-Aldrich
Description: All enzymes and para-nitrophenyl substrates were purchased from Sigma. Enzymes were assayed at 27 °C in citric acid (0.1 M)/disodium hydrogen phosphate (0.2 M) buffers at the optimum pH for the enzyme. The incubation mixture consisted of […] of 1 mg/mL aqueous solution of extract and […] of the appropriate 5 μM para-nitrophenyl substrate made up in buffer at the optimum pH for the enzyme. […] Assays were carried out in triplicate, and the values given are means of the three replicates per assay. All reactions were run in water.

[3] = test system: β-D-glucuronidase (bovine liver); experiment: Glycosidase inhibition (Table 3 panel); format: biochemical; conditions: 1 mg/mL aqueous solution; run in water
Description: (§1) All enzymes and para-nitrophenyl substrates were purchased from Sigma. Enzymes were assayed at 27 °C in citric acid (0.1 M)/disodium hydrogen phosphate (0.2 M) buffers at the optimum pH for the enzyme. The incubation mixture consisted of […] of 1 mg/mL aqueous solution of extract and […] of the appropriate […] para-nitrophenyl substrate made up in buffer at the optimum pH for the enzyme. The reactions were stopped by addition of […] 0.4 M glycine (pH 10.4) during the exponential phase of the reaction, which had been determined at the beginning using uninhibited assays in which water replaced the inhibitor. Final absorbances were read at 405 nm using a Versamax microplate reader (Molecular Devices, Wokingham, UK). Assays were carried out in triplicate, and the values given are means of the three replicates per assay. All reactions were run in water.

[4] = test system: α-D-glucosidase (rat intestine); experiment: Glycosidase inhibition (Table 3 panel); format: biochemical; conditions: 1 mg/mL aqueous solution; run in water
Description: as §1

[5] = test system: N-acetyl-β-D-hexosaminidase (rat intestine); experiment: Glycosidase inhibition (Table 3 panel); format: biochemical; conditions: 1 mg/mL aqueous solution; run in water
Description: as §1

β-D-glucosidase (almond) = experiment: Glycosidase inhibition (Table 3 panel); format: biochemical; conditions: 1 mg/mL aqueous solution; run in water
Description: as §1

α-D-glucosidase (yeast) [6] = target: T1, α-D-glucosidase (yeast); experiment: Glycosidase inhibition (Table 2 panel); format: biochemical; conditions: read-out: inhibition % α-D-Glucosidase Yeast
Excerpt: (§2) The enzymes α-D-glucosidase (yeast), β-D-glucosidases (almond, bovine liver), α-D-galactosidase (coffee beans), β-D-galactosidase (bovine liver), α-D-mannosidase (Jack bean), β-D-mannosidase (snail), α-L-rhamnosidase (P. decumbens), α-L-fucosidase (bovine kidney), trehalase (porcine kidney), β-D-glucuronidases (E. coli, bovine liver), amyloglucosidase (A. niger), para-nitrophenyl glycosides, and various disaccharides were purchased from Sigma-Aldrich Co (St. Louis, MO, USA).
(§3) Brush border membranes were prepared from the rat small intestine according to the method of Kessler et al., and were assayed at pH 6.8 for rat intestinal maltase using maltose. […] The reaction was stopped by heating at 100 °C for 3 min. After centrifugation (600 g; 10 min), the resulting reaction mixture was added to the Glucose CII-test Wako (Wako Pure Chemical Ind., Osaka, Japan). […] Other glycosidase activities were determined using an appropriate para-nitrophenyl glycoside as substrate at the optimum pH of each enzyme. The reaction mixture contained the substrate ([…]) and the appropriate amount of enzyme. The reaction was stopped by the addition of Na2CO3 (400 μM). The released para-nitrophenol was measured spectrometrically at 400 nm. All reactions were run in methanol.

[7] = test system: T2, amyloglucosidase (A. niger); experiment: Glycosidase inhibition (Table 2 panel); format: biochemical
T2 construct: purchased Sigma-Aldrich
Excerpt: as §2, §3

[8] = test system: T3, β-D-glucuronidase (E. coli); experiment: Glycosidase inhibition (Table 2 panel); format: biochemical
T3 construct: purchased Sigma-Aldrich
Excerpt: as §2, §3

[9] = test system: T4, α-L-fucosidase (bovine kidney); experiment: Glycosidase inhibition (Table 2 panel); format: biochemical; conditions: at 1000 μM
T4 construct: purchased Sigma-Aldrich; host or cells: bovine kidney
Method in brief: (§4)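 Commercial enzymes assayed with para-nitrophenyl glycoside substrate […] at each enzyme's optimum pH, reaction stopped with Na2CO3 […]. Released para-nitrophenol read at 400 nm; […].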

[10] = target: T5, β-D-galactosidase (bovine liver) (Bos taurus, UniProt F1MNT6); experiment: Glycosidase inhibition (Table 2 panel); format: biochemical
T5 sequence (F1MNT6 1-469): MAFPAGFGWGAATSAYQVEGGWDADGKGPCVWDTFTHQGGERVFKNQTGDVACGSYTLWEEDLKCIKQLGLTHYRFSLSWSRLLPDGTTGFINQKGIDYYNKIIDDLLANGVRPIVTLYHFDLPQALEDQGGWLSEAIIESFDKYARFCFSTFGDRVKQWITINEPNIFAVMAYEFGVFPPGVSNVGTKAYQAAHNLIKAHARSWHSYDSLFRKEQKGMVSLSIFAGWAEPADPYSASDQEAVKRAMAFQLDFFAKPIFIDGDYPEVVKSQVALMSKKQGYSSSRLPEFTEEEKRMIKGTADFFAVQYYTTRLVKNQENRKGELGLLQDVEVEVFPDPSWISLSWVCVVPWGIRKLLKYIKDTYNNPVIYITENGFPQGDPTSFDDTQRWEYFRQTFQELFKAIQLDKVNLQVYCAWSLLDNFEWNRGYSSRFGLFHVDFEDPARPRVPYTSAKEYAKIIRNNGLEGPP
Method in brief: as §4

[11] = test system: α-D-glucosidase (human lysosome); experiment: Glycosidase inhibition (Table 2 panel); format: biochemical; conditions: at 100 μM
[12] = Sample appearance on sample preparation in water; format: physicochemical; conditions: 1 mL of water was added to 1 mg solid
[13] = test system: MCF10A (non-tumour derived normal breast cell line); experiment: Cancer screening, MTT growth inhibition; format: cell-based; conditions: Homo sapiens, MCF-10A, 72 h; for inhibition at 25 µM: 25 µM of drug, read-out: DOSE SCREEN percentage (%) cell growth inhibition MCF10A Breast (normal); for GI50: read-out: DOSE RESPONSE GI50 MCF10A Breast (normal)
[14] = test system: β-D-galactosidase (E. coli); experiment: Glycosidase inhibition (Table 2 panel); format: biochemical; conditions: at 100 μM
[15] = test system: β-D-glucanase (T. Longibrachiatum); experiment: Glycosidase inhibition (Table 2 panel); format: biochemical; conditions: at 100 μM

T1 sequence (P53341 whole entry): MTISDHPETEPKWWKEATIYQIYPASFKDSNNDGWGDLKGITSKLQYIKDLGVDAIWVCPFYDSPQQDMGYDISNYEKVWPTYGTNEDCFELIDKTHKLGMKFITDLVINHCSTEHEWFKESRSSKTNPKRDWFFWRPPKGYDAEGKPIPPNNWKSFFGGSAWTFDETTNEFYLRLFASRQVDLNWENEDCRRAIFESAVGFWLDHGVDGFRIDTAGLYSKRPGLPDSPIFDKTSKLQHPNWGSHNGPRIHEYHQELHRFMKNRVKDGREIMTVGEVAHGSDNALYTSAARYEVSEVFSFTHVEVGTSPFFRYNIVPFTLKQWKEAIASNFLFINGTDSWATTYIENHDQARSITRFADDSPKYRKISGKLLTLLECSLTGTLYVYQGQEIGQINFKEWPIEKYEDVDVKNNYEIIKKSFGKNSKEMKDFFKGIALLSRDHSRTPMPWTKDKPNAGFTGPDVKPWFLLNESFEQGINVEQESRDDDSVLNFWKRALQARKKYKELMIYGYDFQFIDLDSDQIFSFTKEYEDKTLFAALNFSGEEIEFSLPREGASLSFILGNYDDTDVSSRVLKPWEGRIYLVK

Row | SMILES | inhibition % β-D-Glucosidase Human Lysosome [1] | Percentage inhibition α-D-Glucosidase Yeast (α-D-glucosidase (yeast) [2]) [%] | inhibition at 1000 µg/mL (stock) (α-D-glucosidase (yeast) [2]) [%] | Percentage inhibition β-D-Glucuronidase Bovine Liver [3] [%] | Percentage inhibition α-D-Glucosidase Rat Intestine [4] | Percentage inhibition N-Acetyl-β-D-Hexosaminidase Rat Intestine [5] [%] | Percentage inhibition β-D-Glucosidase Almond (β-D-glucosidase (almond)) [%] | inhibition at 100 µM (α-D-glucosidase (yeast) [6]) [%] | inhibition at 1000 µM (α-D-glucosidase (yeast) [6]) [%] | inhibition % Amyloglucosidase A. niger ([7]; at 100 μM) | inhibition % Amyloglucosidase A. niger ([7]; at 1000 μM) | inhibition % β-D-Glucuronidase E. coli ([8]; at 100 μM) | inhibition % β-D-Glucuronidase E. coli ([8]; at 1000 μM) | inhibition at 100 µM [10] [%] | inhibition % α-D-Glucosidase Human Lysosome [11] | Sample Appearance [12] | inhibition at 25 µM [13] [%] | GI50 [13] [µM] | inhibition % β-D-Galactosidase E. coli [14] | inhibition % β-D-Glucanase T. Longibrachiatum [15] | also measured
1 | CC1(C)O[C@H]2O[C@H]3[C@@H]([C@H]2O1)N(Cc1cccc(B2OC(C)(C)C(C)(C)O2)c1)C[C@H]3O [meta 2, N-(3-Methylphenylboronic acid pinacol ester)-3,6-dideoxy-3,6-imino-1,2-O-isopropylidene-α-D-gulofuranose] | ^cNI ^d(0%) | 7.9 | 9.3 | 9.9 | 16.8% | 11.5 | 13.2 | 8.8 | 0 | ^cNI ^d(1.4%) | ^aNI ^b(0%) | ^cNI ^d(13.7%) | ^aNI ^b(5.6%) | 2.2 | ^cNI ^d(3.9%) | In solution | 6 ± 4 | > 50 | ^cNI ^d(0%) | ^cNI ^d(3.9%) | inhibition % α-L-Fucosidase Bovine Kidney [9]: ^aNI ^b(3.8%); inhibition at 1000 µM ([10]; at 1000 μM): 41.8%
2 | OB(O)c1cccc(CN2C[C@@H](O)[C@H]3OC(O)[C@H](O)[C@H]32)c1 (stereo partly drawn) [meta 3, N-(3-Methylphenylboronic acid)-3,6-dideoxy-3,6-imino-D-gulofuranose] | ^cNI ^d(6.6%) |  | -16.7 | 13.3 | 12.1% and 8.9% | 8.7 | 61.7 | 1.4 | 37 | ^cNI ^d(24.6%) | ^aNI ^b(1.5%) | ^cNI ^d(16.2%) | ^aNI ^b(36.9%) |  | ^cNI ^d(3.5%) | In solution | 6 ± 4 | > 50 | ^cNI ^d(0.2%) | ^cNI ^d(0%) | inhibition % α-L-Fucosidase Bovine Kidney [9]: ^aNI ^b(3.8%)
3 | CC1(C)O[C@H]2O[C@H]3[C@@H]([C@H]2O1)N(Cc1cccc(B(O)O)c1)C[C@H]3O [meta 5, N-(3-Methylphenylboronic acid)-3,6-dideoxy-3,6-imino-1,2-O-isopropylidene-α-D-glucofuranose] | ^cNI ^d(0%) | 13.7 | 14.8 | −0.9 | 11.6% | 5 | 7.7 | 7.8 |  | ^cNI ^d(0%) |  | ^cNI ^d(4.1%) |  | 0 | ^cNI ^d(0.3%) | In solution | 7 ± 4 | > 50 | ^cNI ^d(0%) | ^cNI ^d(0%) | 
4 | CC1(C)O[C@H]2O[C@H]3[C@@H]([C@H]2O1)N(Cc1cccc(O)c1)C[C@H]3O [meta 6] | ^cNI ^d(0%) |  | 6.6 | 3.6 | 4.8% | −0.7 | 0.7 | 0 |  | ^cNI ^d(4.8%) |  | ^cNI ^d(0%) |  | 15.5 | ^cNI ^d(3.3%) | In solution | 4 ± 2 | > 50 | ^cNI ^d(0.8%) | ^cNI ^d(3.1%) | 
5 | OB(O)c1ccccc1CN1C[C@@H](O)[C@H]2OC(O)[C@H](O)[C@H]21 (stereo partly drawn) [ortho 3, N-(2-Methylphenylboronic acid)-3,6-dideoxy-3,6-imino-D-gulofuranose] | ^cNI ^d(0%) |  | 4.1 | 1.3 | −1.4% | 19.2 | 68.6 | 2.9 | 1 | ^cNI ^d(0%) | ^aNI ^b(2.1%) | ^cNI ^d(0%) | ^aNI ^b(8.4%) |  | ^cNI ^d(0.3%) | In solution | 9 ± 7 | > 50 | ^cNI ^d(4.4%) | ^cNI ^d(0%) | inhibition % α-L-Fucosidase Bovine Kidney [9]: ^aNI ^b(2.1%)
6 | CC1(C)O[C@H]2O[C@H]3[C@@H]([C@H]2O1)N(Cc1ccccc1B(O)O)C[C@H]3O [ortho 5] | ^cNI ^d(3.5%) | 11 | 8.7 | 1.4 | 4.2% | 5.2 | 8.7 | 0 |  | ^cNI ^d(4.9%) |  | ^cNI ^d(1.2%) |  | 6.1 | ^cNI ^d(0%) | In solution | 7 ± 6 | > 50 | ^cNI ^d(0%) | ^cNI ^d(5.2%) | 
